In ChEMBL document CHEMBL1151841, “Dihydrostilbene derivatives from the Mongolian medicinal plant Scorzonera radiata” (J Nat Prod, 2009):
pIC50: −log10 of the molar value. Activity calls are given as the source filed them. The calls are words filed in the database; no cut-off is given here.

Assays:
[1] = tested on: Radical scavenging activity; assay: Antioxidant activity assessed as DPPH radical scavenging activity after 5 mins; format: functional
L5178Y = assay: Cytotoxicity against mouse L5178Y cells at 10 ug/mL by MTT assay; format: functional, cell-based

Row | SMILES | pIC50 [1] | Activity (L5178Y)
1 | COc1cc(CCc2c(O)ccc(O[C@@H]3O[C@H](CO)[C@@H](O)[C@H](O)[C@H]3O)c2C(C)=O)ccc1O [SCORZODIHYDROSTILBENE A] | 3.98 | inactive
2 | Oc1ccc(/C=C/c2cc(O)cc(O)c2)cc1 [RESVERATROL] | 3.83 | 
3 | COc1ccc(CCc2c(O)ccc(O[C@@H]3O[C@H](CO)[C@@H](O)[C@H](O)[C@H]3O)c2C(C)=O)cc1OC [SCORZODIHYDROSTILBENE B] | 3.18 | inactive

Continued, in another order:

Row | pIC50 [1] | SMILES | Activity (L5178Y)
4 | 3.14 | COc1ccc(CCc2c(O[C@@H]3O[C@H](CO)[C@@H](O)[C@H](O)[C@H]3O)ccc(O)c2C(C)=O)cc1OC [SCORZODIHYDROSTILBENE D] | 
5 | 3.31 | CC(=O)c1c(O[C@@H]2O[C@H](CO)[C@@H](O)[C@H](O)[C@H]2O)ccc(O)c1CCc1ccc(O)cc1 [SCORZODIHYDROSTILBENE C] | 
6 | 3.99 | COc1cc(CCc2c(O)ccc(O[C@@H]3O[C@H](CO)[C@@H](O)[C@H](O)[C@H]3O)c2C(C)=O)cc(-c2cc(CCc3c(O)ccc(O[C@@H]4O[C@H](CO)[C@@H](O)[C@H](O)[C@H]4O)c3C(C)=O)cc(OC)c2O)c1O [SCORZODIHYDROSTILBENE E] | 
